In test [1] the target is Calcium/calmodulin-dependent protein kinase kinase 1 (Homo sapiens) (UniProt Q8N5S9).
The target in test [2] is Serine/threonine-protein kinase 26 (Homo sapiens) (UniProt Q9P289).
Test [3] deals with Proto-oncogene tyrosine-protein kinase Src (Homo sapiens) (UniProt P12931).
Test [4] addresses T1, Mitogen-activated protein kinase 13 (Homo sapiens) (UniProt O15264).
T1 sequence (whole entry): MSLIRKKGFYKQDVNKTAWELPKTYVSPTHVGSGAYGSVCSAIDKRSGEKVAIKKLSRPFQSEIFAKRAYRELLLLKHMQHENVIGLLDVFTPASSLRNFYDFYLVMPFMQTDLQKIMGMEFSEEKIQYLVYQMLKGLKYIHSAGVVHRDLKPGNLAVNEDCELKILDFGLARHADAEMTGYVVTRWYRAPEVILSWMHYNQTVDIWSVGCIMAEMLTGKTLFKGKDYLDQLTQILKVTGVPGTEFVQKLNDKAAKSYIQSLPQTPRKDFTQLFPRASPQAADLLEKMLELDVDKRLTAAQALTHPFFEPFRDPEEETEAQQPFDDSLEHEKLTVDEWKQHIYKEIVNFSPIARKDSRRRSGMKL

In test [5] the target is Serine/threonine-protein kinase BRSK2 (Homo sapiens) (UniProt Q8IWQ3).
In test [6] the target is Tyrosine-protein kinase ABL1 (Homo sapiens) (UniProt P00519).
The target in test [7] is T2, Tyrosine-protein kinase ZAP-70 (Homo sapiens) (UniProt P43403).
T2 sequence (whole entry): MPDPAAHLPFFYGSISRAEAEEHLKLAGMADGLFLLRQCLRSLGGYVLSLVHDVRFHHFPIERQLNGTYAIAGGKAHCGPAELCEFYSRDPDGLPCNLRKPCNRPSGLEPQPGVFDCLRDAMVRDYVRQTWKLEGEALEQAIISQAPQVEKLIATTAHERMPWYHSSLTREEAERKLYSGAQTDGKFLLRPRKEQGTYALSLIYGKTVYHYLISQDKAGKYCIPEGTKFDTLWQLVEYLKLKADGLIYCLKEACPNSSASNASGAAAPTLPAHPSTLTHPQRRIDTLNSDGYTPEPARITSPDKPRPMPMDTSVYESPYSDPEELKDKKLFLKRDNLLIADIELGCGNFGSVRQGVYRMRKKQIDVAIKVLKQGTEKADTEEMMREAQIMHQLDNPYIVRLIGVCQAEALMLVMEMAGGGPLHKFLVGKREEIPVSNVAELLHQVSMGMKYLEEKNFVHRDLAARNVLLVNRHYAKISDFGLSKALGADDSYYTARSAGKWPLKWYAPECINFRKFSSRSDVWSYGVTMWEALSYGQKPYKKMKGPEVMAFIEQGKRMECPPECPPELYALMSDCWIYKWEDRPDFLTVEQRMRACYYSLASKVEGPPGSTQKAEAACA

For test [8], the target named is Serine/threonine-protein kinase tousled-like 1 (Homo sapiens) (UniProt Q9UKI8).
The target in test [9] is Cyclin-dependent kinase 2 homolog (Plasmodium falciparum (isolate 3D7)) (UniProt P61075).
The target in test [10] is Tyrosine-protein kinase Lck (Homo sapiens) (UniProt P06239).
Test [11] concerns the target Serine/threonine-protein kinase 35 (Homo sapiens) (UniProt Q8TDR2).
Test [12] concerns the target Calcium/calmodulin-dependent protein kinase type II subunit gamma (Homo sapiens) (UniProt Q13555).
Test [13] concerns the target MAP kinase-activated protein kinase 2 (Homo sapiens) (UniProt P49137).
Test [14] deals with Sigma intracellular receptor 2 (Homo sapiens, UniProt Q5BJF2). As to conditions: Compound concentration 10.0 uM.
In test [15] the target is cAMP-dependent protein kinase catalytic subunit alpha (Homo sapiens) (UniProt P17612).
Test [16] has as its target Serine/threonine-protein kinase Nek5 (Homo sapiens) (UniProt Q6P3R8).
Test [17] has as its system Phosphatidylinositol 4,5-bisphosphate 3-kinase catalytic subunit alpha isoform (Homo sapiens), P42336 [E545A].
The target of test [18] is T3, Serine/threonine-protein kinase NLK (Homo sapiens) (UniProt Q9UBE8).
T3 sequence (whole entry): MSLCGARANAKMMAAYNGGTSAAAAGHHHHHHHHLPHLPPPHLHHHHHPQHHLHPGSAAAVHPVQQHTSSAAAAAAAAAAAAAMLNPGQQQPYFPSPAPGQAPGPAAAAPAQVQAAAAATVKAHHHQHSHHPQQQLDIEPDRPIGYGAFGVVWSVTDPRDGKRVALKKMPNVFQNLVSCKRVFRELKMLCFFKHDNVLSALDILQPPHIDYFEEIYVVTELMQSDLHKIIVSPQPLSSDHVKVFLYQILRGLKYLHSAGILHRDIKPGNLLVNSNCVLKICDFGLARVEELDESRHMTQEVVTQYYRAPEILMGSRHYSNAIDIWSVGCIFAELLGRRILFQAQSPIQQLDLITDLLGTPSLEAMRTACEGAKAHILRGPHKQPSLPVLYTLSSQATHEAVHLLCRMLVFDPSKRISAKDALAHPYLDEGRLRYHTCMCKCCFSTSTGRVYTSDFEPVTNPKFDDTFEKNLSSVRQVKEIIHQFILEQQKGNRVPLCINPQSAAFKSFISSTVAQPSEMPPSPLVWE

Test [19] deals with Serine/threonine-protein kinase 32A (Homo sapiens) (UniProt Q8WU08).
Test [20] concerns the target Serine/threonine-protein kinase B-raf (Homo sapiens) (UniProt P15056).
The mark [21] stands for this setting: Compound concentration 1000.0 nM.
Setting [22] is: Compound concentration 100.0 nM.

Usually inhibition stands for the percentage by which the read-out fell short of the control.

Phosphatidylinositol 4,5-bisphosphate 3-kinase catalytic subunit alpha isoform (Homo sapiens), P42336 [E545A], sequence (P42336 whole entry E545A, canonical isoform): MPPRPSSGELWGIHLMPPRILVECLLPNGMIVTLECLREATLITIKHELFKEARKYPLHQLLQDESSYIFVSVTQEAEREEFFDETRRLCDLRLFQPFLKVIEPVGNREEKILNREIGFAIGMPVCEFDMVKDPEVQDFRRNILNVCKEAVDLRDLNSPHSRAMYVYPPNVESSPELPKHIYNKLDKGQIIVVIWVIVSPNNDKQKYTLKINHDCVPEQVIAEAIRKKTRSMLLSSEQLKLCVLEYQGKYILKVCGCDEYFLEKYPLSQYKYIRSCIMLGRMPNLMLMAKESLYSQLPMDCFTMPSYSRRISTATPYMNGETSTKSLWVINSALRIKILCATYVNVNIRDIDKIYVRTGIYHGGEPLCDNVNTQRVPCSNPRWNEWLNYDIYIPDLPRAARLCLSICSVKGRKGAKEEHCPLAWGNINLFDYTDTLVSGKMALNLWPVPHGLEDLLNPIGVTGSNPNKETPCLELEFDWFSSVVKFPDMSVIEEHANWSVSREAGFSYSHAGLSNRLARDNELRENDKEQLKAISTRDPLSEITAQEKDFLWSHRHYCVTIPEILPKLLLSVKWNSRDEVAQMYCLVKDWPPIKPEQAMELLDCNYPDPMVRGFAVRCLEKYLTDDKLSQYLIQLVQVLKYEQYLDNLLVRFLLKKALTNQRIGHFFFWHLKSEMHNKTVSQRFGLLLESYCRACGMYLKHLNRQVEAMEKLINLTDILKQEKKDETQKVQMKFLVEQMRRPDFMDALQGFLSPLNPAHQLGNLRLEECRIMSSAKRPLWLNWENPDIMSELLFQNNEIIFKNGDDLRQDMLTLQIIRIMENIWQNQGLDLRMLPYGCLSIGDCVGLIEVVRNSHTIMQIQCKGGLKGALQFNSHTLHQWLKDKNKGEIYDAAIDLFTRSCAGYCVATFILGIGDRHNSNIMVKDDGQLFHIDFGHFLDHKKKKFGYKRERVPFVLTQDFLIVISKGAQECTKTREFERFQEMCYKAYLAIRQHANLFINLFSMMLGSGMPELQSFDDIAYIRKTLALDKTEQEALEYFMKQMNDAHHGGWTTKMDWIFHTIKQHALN
MAP kinase-activated protein kinase 2 (Homo sapiens), sequence (P49137 whole entry, looked up): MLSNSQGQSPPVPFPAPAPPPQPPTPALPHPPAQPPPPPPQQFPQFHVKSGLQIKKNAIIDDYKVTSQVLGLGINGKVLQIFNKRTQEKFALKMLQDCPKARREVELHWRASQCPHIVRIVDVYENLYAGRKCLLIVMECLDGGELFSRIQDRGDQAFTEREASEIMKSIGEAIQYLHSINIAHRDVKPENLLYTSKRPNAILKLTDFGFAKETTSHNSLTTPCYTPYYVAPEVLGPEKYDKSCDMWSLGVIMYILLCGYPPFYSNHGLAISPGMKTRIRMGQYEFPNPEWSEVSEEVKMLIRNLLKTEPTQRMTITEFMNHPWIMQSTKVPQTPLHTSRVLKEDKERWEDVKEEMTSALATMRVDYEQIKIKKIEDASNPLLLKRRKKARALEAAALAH
Proto-oncogene tyrosine-protein kinase Src (Homo sapiens), sequence (P12931 2-536 limits assumed): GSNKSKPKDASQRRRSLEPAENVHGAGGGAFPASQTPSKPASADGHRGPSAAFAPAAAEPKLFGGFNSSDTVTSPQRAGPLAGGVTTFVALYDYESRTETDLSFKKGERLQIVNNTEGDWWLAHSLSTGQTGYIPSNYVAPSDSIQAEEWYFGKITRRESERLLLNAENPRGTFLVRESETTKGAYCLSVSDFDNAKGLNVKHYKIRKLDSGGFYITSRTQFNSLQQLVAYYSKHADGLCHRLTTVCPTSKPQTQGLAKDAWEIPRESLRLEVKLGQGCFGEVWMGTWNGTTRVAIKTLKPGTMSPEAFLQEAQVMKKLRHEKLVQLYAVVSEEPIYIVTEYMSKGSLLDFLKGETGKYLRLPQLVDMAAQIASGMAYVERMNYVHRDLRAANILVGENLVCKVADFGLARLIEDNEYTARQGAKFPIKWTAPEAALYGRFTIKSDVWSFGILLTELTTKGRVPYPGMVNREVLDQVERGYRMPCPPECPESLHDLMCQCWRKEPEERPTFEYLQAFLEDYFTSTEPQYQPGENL
Calcium/calmodulin-dependent protein kinase type II subunit gamma (Homo sapiens), sequence (Q13555 whole entry): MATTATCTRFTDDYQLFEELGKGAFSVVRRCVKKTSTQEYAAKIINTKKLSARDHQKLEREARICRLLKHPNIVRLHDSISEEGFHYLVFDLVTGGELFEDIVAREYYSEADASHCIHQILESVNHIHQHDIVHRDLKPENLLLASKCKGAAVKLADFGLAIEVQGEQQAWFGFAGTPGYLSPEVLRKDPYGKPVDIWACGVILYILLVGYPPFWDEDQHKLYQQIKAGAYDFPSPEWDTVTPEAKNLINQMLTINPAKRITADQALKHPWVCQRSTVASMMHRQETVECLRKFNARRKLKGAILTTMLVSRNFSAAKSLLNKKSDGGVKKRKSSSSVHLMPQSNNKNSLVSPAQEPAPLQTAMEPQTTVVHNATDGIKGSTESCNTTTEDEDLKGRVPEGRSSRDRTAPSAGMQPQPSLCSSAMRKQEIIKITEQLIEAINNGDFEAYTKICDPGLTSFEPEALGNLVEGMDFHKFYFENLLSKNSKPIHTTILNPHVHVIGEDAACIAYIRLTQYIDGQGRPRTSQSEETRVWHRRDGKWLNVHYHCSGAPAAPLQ
Sigma intracellular receptor 2, sequence (Q5BJF2 whole entry): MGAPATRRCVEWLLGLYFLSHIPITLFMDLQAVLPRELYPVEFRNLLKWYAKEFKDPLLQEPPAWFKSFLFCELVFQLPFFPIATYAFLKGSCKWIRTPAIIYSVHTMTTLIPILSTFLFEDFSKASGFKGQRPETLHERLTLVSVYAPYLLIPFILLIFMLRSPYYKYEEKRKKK
Serine/threonine-protein kinase 32A (Homo sapiens), sequence (Q8WU08 whole entry): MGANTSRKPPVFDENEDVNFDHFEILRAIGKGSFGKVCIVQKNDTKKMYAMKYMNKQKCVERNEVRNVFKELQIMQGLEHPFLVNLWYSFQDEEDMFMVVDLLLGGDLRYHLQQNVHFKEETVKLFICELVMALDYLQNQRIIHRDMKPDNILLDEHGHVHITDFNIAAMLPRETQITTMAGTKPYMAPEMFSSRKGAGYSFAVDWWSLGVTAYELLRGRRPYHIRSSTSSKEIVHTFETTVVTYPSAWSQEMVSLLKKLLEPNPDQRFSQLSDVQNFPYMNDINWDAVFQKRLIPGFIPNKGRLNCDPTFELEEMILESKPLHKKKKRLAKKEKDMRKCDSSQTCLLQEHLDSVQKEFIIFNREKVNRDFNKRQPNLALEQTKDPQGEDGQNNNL
Serine/threonine-protein kinase 26 (Homo sapiens), sequence (Q9P289 2-416 limits assumed): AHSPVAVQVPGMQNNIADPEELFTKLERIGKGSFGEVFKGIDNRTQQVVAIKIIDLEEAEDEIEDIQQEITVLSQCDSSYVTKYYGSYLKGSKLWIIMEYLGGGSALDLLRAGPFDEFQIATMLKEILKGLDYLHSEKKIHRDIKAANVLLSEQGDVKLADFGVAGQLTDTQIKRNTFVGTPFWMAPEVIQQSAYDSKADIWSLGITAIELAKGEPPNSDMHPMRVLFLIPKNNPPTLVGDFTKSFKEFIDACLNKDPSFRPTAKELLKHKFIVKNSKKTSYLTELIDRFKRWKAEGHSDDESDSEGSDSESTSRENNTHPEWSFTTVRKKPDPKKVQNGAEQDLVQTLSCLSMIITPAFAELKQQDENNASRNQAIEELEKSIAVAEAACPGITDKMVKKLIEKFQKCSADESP
Tyrosine-protein kinase ABL1 (Homo sapiens), sequence (P00519 whole entry): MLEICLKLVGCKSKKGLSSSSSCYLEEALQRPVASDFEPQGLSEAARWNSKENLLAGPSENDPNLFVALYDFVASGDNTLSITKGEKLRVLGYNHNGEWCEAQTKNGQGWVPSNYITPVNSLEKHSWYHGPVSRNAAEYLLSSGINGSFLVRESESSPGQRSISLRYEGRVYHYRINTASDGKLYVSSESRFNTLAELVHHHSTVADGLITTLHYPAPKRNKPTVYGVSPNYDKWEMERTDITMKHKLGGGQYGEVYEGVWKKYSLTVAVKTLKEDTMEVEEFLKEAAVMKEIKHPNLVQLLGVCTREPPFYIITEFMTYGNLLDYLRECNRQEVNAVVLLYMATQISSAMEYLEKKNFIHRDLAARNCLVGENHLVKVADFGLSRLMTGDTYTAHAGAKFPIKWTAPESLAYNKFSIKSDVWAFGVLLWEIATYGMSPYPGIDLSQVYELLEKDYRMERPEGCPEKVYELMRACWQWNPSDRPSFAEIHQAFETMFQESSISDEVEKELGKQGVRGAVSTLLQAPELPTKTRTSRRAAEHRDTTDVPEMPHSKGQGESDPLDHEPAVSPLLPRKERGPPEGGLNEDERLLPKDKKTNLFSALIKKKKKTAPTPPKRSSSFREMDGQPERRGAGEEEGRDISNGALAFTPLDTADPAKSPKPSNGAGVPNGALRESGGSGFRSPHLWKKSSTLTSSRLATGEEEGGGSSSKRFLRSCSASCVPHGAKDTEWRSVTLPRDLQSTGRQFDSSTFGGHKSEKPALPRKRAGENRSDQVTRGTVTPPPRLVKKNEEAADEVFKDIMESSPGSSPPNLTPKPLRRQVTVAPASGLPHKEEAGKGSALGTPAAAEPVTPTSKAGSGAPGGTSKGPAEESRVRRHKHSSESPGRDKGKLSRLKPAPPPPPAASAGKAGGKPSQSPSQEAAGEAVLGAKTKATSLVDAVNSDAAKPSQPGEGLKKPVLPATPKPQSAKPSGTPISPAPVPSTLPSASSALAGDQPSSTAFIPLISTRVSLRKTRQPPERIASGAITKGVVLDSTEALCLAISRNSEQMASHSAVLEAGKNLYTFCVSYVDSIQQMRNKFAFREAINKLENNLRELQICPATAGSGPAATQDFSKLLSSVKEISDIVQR
Cyclin-dependent kinase 2 homolog (Plasmodium falciparum (isolate 3D7)), sequence (P61075 whole entry): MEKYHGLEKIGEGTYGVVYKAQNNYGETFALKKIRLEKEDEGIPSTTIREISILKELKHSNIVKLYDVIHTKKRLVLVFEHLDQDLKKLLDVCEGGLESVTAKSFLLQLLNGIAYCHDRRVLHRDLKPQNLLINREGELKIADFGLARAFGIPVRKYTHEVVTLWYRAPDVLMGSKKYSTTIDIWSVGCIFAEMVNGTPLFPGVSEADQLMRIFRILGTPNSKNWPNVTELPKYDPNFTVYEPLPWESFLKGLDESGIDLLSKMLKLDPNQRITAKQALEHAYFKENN

Turning to `C[C@@H]1CN(c2cc(-c3nn(C)c4ccc(OC5(C)CC5)cc34)ncn2)C[C@H](C)O1` [MLi-2-NC], the residual activity is 80% in test [1] (setting [21]); 74% in test [2] (setting [21]); 100% in test [3] (setting [21]); 100% in [4] (setting [21]); 100% in test [5] (setting [21]); 85% in test [6] (setting [21]). In addition, the residual activity was 100% in test [7] (setting [21]); 100% in test [8] (setting [21]); 94% in [9] (setting [21]); 94% in test [10] (setting [21]); 100% in [11] (setting [21]); 90% in test [12] (setting [21]). In addition, the residual activity in test [13] (setting [21]) is 93%; in test [15] (setting [21]), 95%; in test [16] (setting [21]), 100%; in test [17] (setting [21]), 100%; in [18] (setting [21]), 96%; in [19] (setting [21]), 78%. Besides, the residual activity in test [20] (setting [21]) is 68%. Moreover, the inhibition in test [14] was 90.4%.
Take `C[C@@H]1CN(c2cc(-c3n[nH]c4ccc(OC5(C)CC5)cc34)ncn2)C[C@H](C)O1` [MLi-2]: the residual activity in [1] (setting [22]) is 100%; in test [2] (setting [22]), 76%; in test [3] (setting [22]), 81%; in test [4] (setting [22]) it was 96%; in test [5] (setting [22]), 100%; in test [6] (setting [22]) it was 87%. Besides, the residual activity in [7] (setting [22]) was 83%; in test [8] (setting [22]) it was 94%; in test [9] (setting [22]), 80%; in test [10] (setting [22]) it was 100%; in [11] (setting [22]) it was 85%; in [12] (setting [22]) it was 100%. The residual activity is 96% in [13] (setting [22]); 85% in test [15] (setting [22]); 100% in test [16] (setting [22]); 76% in test [17] (setting [22]); 100% in [18] (setting [22]); 92% in test [19] (setting [22]). Moreover, in [20] (setting [22]), the residual activity was 91%. For the same molecule, the inhibition in test [14] is 50.4%.

(Values after ChEMBL document CHEMBL4507291 (2021).)
